Assay results as given in US5958873A, “Oral formulation for treatment of bacteria-induced diseases of the colon” (University of Cincinnati, priority 1997, dated 1999).
In brackets after ≈: the same amount, converted by molar mass.

Key:
[1] = system: Bacteroides fragilis; experiment: In vitro MIC against clinical isolates of B. fragilis (same agar method); assay type: cell-based; settings: 23 clinical isolates of B. fragilis; calculated geometrically
[2] = system: C. difficile; experiment: In vitro MIC against clinical isolates of C. difficile (Brucella agar with sheep's blood, anaerobic); assay type: cell-based, Clostridium difficile

Structure (SMILES)	MIC50 [1] [μml]	MIC90 [1] [μml]	MIC range ([2]; 60 clinical isolates of C. difficile)	MIC50 [2] [µg/mL]	MIC90 [2] [µg/mL]	MIC range ([2]; in µg/mL)
CCC[C@@H]1C[C@@H](C(=O)N[C@@H]([C@H]2O[C@H](SC)[C@H](O)[C@@H](O)[C@H]2O)[C@H](C)Cl)N(C)C1 [clindamycin]	55	13				
Cc1ncc([N+](=O)[O-])n1CCO [metronidazole]	1.4	2	0.25-4 μml			
CN[C@H](CC(C)C)C(=O)N[C@H]1C(=O)N[C@@H](CC(N)=O)C(=O)N[C@H]2C(=O)N[C@H]3C(=O)N[C@H](C(=O)N[C@H](C(=O)O)c4cc(O)cc(O)c4-c4cc3ccc4O)[C@H](O)c3ccc(c(Cl)c3)Oc3cc2cc(c3O[C@@H]2O[C@H](CO)[C@@H](O)[C@H](O)[C@H]2O[C@H]2C[C@](C)(N)[C@H](O)[C@H](C)O2)Oc2ccc(cc2Cl)[C@H]1O [vancomycin]				0.38 (≈ 0.262 µM)	0.8 (≈ 0.552 µM)	0.13-2
